What was measured:
[1] = test system: SKRC7 human renal cell line; test: Vinblastine accumulation assay, SKRC7; assay type: cell-based; conditions: 10 μM, 10 nM [3H] vinblastine
Protocol: (§1) These cell lines are models of intrinsic resistance.
(§2) [^3 H] vinblastine was added to a final concentration of 10 nM and the cells were incubated for 2.5 hours. At this time, the cells were washed 3 times in ice cold PBS and lysed in buffer containing 0.1% Triton X-100.

[2] = in vitro; conditions: human
Protocol: (§3) Myelosuppression is often a dose limiting side effect of chemotherapeutic agents. […] The toxicities to human granulocyte-macrophage progenitors (CFU-GM) of 1b, 1c, and VLB was assessed by measuring inhibition of CFU-GM proliferation in cultures continuously exposed to each agent alone and compared to the toxicities to sensitive and resistant MCF7 in tumor cell clonogenic assays.
(§4) METHOD: The CFLI-GM assay measures clonal proliferation of granulocyte/macrophage precursors in semisolid agar cultures. The progeny of the granulocyte/macrophage precursors remain in proximity of the progenitor cells and form colonies. Colonies which contain greater than 40 cells after 10-12 days of culture are counted using an inverted phase contrast microscope. The tumor cell clonogenic assays measure clonal proliferation of tumor cells. In this assay, 300-500 cells are plated in 10 cm^2 wells, allowed to adhere overnight, and are treated the following day. Tumor cell colonies were counted after 10-12 days of culture. The times of exposure in these experiments are similar; however, the concentrations of FCS are 20% in the CFU-GM assay and 10% in the tumor cell clonogenic assays. The IC50's are calculated as described above for the MTT proliferation assays. (See Example 4).
(§5) To facilitate this comparison, a CFLI-GM toxicity index was calculated by dividing the CFU-GM IC50 by the respective tumor cell clonogenic IC50's in sensitive and resistant cells.

[3] = test system: granulocyte-macrophage progenitors (CFU-GM); test: cells
Protocol: as §3, §4, §5

[4] = test system: MARCKS protein; test: Phosphorylation of MARCKS in intact MCF7 Adr 10 cells; assay type: cell-based, human; conditions: MCF7 Adr 10, representative time course experiment, FIG. 12
Excerpt: The effects of compound 1c on phosphorylation of the P-glycoprotein and the MARCKS protein (myristoylated alanine-rich C kinase substrate) was studied in intact cells labeled with [^32 P] orthophosphate. The MARCKS protein (also known as the 80 to 87 kD protein) is observed to be rapidly phosphorylated subsequent to PKC activation by phorbol esters, cell permeant diacylglycerols, growth factor and hormonal stimulation in a variety of cell types from several species. […] In these experiments, phosphorylation of MARCKS was used as a marker of cellular PKC activity. The effects of 1c on phosphorylation states of the P-glycoprotein and MARCKS protein were studied to test the possibility that this compound may be inhibiting PKC in cells; due to metabolism to an active PKC inhibitor or by achieving inhibitory concentrations in the microenvironment of the P-glycoprotein.
METHOD: A monoclonal antibody to the P-glycoprotein, C219, was used to immunoprecipitate the P-glycoprotein and a polyclonal rabbit antibody was used to immunoprecipitate the MARCKS protein from extracts of cells labeled with [^32 P]. MARCKS was immunoprecipitated after preclearing the aliquot with normal rabbit IgG. MCF7 Adr 10 cells were labeled with [^32 P] orthophosphate for two hours. […] P-glycoprotein and MARCKS were immunoprecipitated from aliquots of the same sample containing equivalent radioactivity.

[5] = test system: A704 human renal cell line; test: Vinblastine accumulation assay, A704; assay type: cell-based; conditions: 10 μM, 10 nM [3H] vinblastine
Protocol: as §1, §2

[6] = [3H] VLB binding to MCF7 WT membrane vesicles; design: species or system human; conditions: MCF7 WT membrane vesicles
Protocol: METHOD: Membrane vesicles from sensitive and MDR MCF7 were prepared by nitrogen cavitation and isolated by centrifugation in discontinuous sucrose gradients. […] In the presence of 100 nM [^3 H] VLB and ATP, total and nonspecific binding of [^3 H] VLB (experimentally defined as binding in the presence of a 100 μM unlabeled VLB) was measured. Association of [^3 H] […] In contrast, association of [^3 H] […] VLB with MCF7 WT vesicles.

[7] = test system: serine threonine kinases; test: In vitro assays of serine threonine kinases; assay type: biochemical
[8] = test system: MCF7 WT; test: Tumor cell clonogenic assay, MCF7 WT; assay type: cell-based, human
[9] = test system: MCF7 WT; test: 72 hour MTT proliferation assay, potentiation of sensitivity in MCF7 WT; assay type: cell-based, human; conditions: MCF7 WT
Protocol: In 72 hour MTT proliferation assays using the following method, compounds 1b, 1c and 1d were assessed for inhibition of Vinca alkaloid and anthracycline drug resistance in MDR MCF7. Additionally, compounds 1b and 1c were assessed for potentiation of sensitivity to Vinca alkaloid and anthracycline drugs in the parental MCF7 WT cell line.
METHOD: 5000 cells per well were plated in 100 μl of IMDM containing 10% FCS and allowed to adhere overnight. The following day the cells were treated with N-substituted 1,4-diaminoanthraquinones and exposed to graded concentrations of antineoplastic agents. 50 μl of IMDM 10% FCS containing either vehicle or N-substituted 1,4-diaminoanthraquinones at 3 times the final tested concentration was added to cells at timed intervals. The plates were incubated for 2 hours at 37° C. to allow maximal cellular accumulation of N-substituted 1,4-diaminoanthraquinones. 40 μl aliquots of IMDM 10% FCS containing either vehicle or graded concentrations of antineoplastic drugs at 5 times the final concentration were added to treatment groups. Following this addition, 10 μl of IMDM 10% FCS containing either vehicle or N-substituted 1,4-diaminoanthraquinone at 5 times the final concentration was added to each group of wells. The cells were incubated for 72 hours after treatment. At this time the viable cells in each treatment group were estimated in a colorimetric assay by adding MTT and incubating the cells at 37° C. for 3-4 hours. The media in each well was aspirated and MTT formazan was solubilized in isopropyl alcohol acidified with 0.1 N HCl. The absorbance of the solubilized formazan was quantitated using a plate reader spectrophotometer. […] The concentrations of antineoplastic drugs which inhibited proliferation by 50% (IC50's) were estimated by calculating a percentage from the ratio: antineoplastic drug treated groups/control group absorbance and plotting the dose response curve on semilog paper. The IC50 was estimated from this curve. To assess the effects of inhibition of resistance by N-substituted 1,4-diaminoanthraquinones, the percentages were calculated relative to cell groups treated with resistance modifier alone and IC50's calculated as above. A reversal factor was calculated by dividing the IC50 to the antineoplastic drug alone (Control group) by the IC50 to antineoplastic drug in cells treated with resistance modifier.

## O=C1c2ccccc2C(=O)c2c(NCCCN3CCOCC3)ccc(NCCCN3CCOCC3)c21 [Compound 1c, 1,4-bis-[[3'(4-morpholino)propyl]amino]anthraquinone]
[1]
  vinblastine accumulation relative to verapamil: comparable or superior to verapamil activity
[2]; CFU-GM Toxicity Index (CFU-GM IC50 / Tumor Cell Clonogenic IC50)
  selectivity ratio: 9.8
[2]; cfu-gm vs mcf7, lower sensitivity of CFU-GM than drug sensitive (WT) and MDR cancer cell lines
  selectivity ratio: 10 to 20
[3]; Homo sapiens, CFU-GM, read-out: Continuous Exposure IC50, CFU-GM
  IC50: 7.8 µM
[3]; human
  CFU-GM Toxicity Index (CFU-GM IC50 / Tumor Cell Clonogenic IC50): 19.5
[4]
  increase of MARCKS phosphorylation: 3 fold
[5]
  vinblastine accumulation relative to verapamil: comparable or superior to verapamil activity
[6]
  effect on specific binding of [3H] VLB: no effect
[7]
  activity in in vitro assays of serine threonine kinases: does not show significant activity
[8]; Homo sapiens, MCF7, tumor cell clonogenic assay, 10-12 days, read-out: Continuous Exposure IC50, MCF7 WT
  IC50: 0.8 µM
[8]; sensitive cancer cells, clonal proliferation assays
  antiproliferative effect relative to human CFU-GM: approximately 10 times
[9]
  effect on toxicity of vincristine in drug sensitive cells: enhances toxicity of vincristine in drug sensitive cells
[9]; [1c] 1.0 μM
  Reversal Factor (VCR): 1.9

Source: US5436243A, “Aminoanthraquinone derivatives to combat multidrug resistance” (priority 1993, dated 1995)
